Measured values reported in PubChem BioAssay AID1963430 (Molecular Pharmacology Branch, DTP, NCI, 2024).

Tested on: 521955-158-R2-J5-PDC complex spheroid growth, % test/control
Assay: Anticancer human tumor 521955-158-R2-J5-PDC patient-derived pancreatic carcinoma cell line growth inhibition [Asc]
Conditions: for IC50: curve of first compound; for viability, T/C: stronger effect = lower value
In short: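 Complex solid-tumor spheroids incorporating human endothelial and mesenchymal stem cells received single agents or combinations over half-log dilution ranges anchored to clinical Cmax.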

[1] = second compound 0.03 µM, first compound 0.0316 µM
[2] = second compound 0.03 µM, first compound 0.1 µM
[3] = second compound 0.03 µM, first compound 0.316 µM
[4] = second compound 0.03 µM, first compound 1 µM
[5] = second compound 0.03 µM, first compound 3.16 µM
[6] = second compound 0.03 µM, first compound 10 µM
[7] = second compound 0.0949 µM, first compound 0.0316 µM
[8] = second compound 0.0949 µM, first compound 0.1 µM
[9] = second compound 0.0949 µM, first compound 0.316 µM
[10] = second compound 0.0949 µM, first compound 1 µM
[11] = second compound 0.0949 µM, first compound 3.16 µM
[12] = second compound 0.0949 µM, first compound 10 µM
[13] = second compound 0.3 µM, first compound 0.0316 µM
[14] = second compound 0.3 µM, first compound 0.1 µM
[15] = second compound 0.3 µM, first compound 0.316 µM
[16] = second compound 0.3 µM, first compound 1 µM
[17] = second compound 0.3 µM, first compound 3.16 µM
[18] = second compound 0.3 µM, first compound 10 µM
[19] = second compound 0.949 µM, first compound 0.0316 µM
[20] = second compound 0.949 µM, first compound 0.1 µM
[21] = second compound 0.949 µM, first compound 0.316 µM
[22] = second compound 0.949 µM, first compound 1 µM
[23] = second compound 0.949 µM, first compound 3.16 µM
[24] = second compound 0.949 µM, first compound 10 µM
[25] = second compound 3 µM, first compound 0.0316 µM
[26] = second compound 3 µM, first compound 0.1 µM
[27] = second compound 3 µM, first compound 0.316 µM
[28] = second compound 3 µM, first compound 1 µM
[29] = second compound 3 µM, first compound 3.16 µM
[30] = second compound 3 µM, first compound 10 µM
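Note: spheroids exposed to agents for 7 days before readout.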
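Throughout, for viability, T/C: 100% = DMSO vehicle control viability.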

`Cc1nc(N2CCC3(CC2)COC(C)C3N)c(CO)nc1Sc1ccnc(N)c1Cl` (stereo not given) + CCN1C(C(=O)NC23CCC(C(=O)O)(CC2)CC3)C(c2cccc(Cl)c2F)C2(C(=O)Nc3cc(Cl)ccc32)C12CCCCC2 was tested, and the IC50 (second compound 0.03 µM) was 1.5 µM, the IC50 (second compound 0.0949 µM) was over 3 µM and the IC50 (second compound 0.3 µM) was 1.31 µM. It also gave an IC50 (second compound 0.949 µM) of over 3 µM, an IC50 (second compound 3 µM) of over 3 µM and a viability, T/C (second compound 0.03 µM, first compound 0.00949 µM) of 75.7%. It also gave a viability, T/C (second compound 0.03 µM, first compound 0.03 µM) of 75.9%, a viability, T/C (second compound 0.03 µM, first compound 0.0949 µM) of 65.8% and a viability, T/C (second compound 0.03 µM, first compound 0.3 µM) of 60.8%. The viability, T/C (second compound 0.03 µM, first compound 0.949 µM) was 47.5%, the viability, T/C (second compound 0.03 µM, first compound 3 µM) was 50.3% and the viability, T/C (second compound 0.0949 µM, first compound 0.00949 µM) was 88.3%. The viability, T/C (second compound 0.0949 µM, first compound 0.03 µM) was 95.6%, the viability, T/C (second compound 0.0949 µM, first compound 0.0949 µM) was 70.2% and the viability, T/C (second compound 0.0949 µM, first compound 0.3 µM) was 80.2%. The viability, T/C (second compound 0.0949 µM, first compound 0.949 µM) was 70.8%, the viability, T/C (second compound 0.0949 µM, first compound 3 µM) was 57.6% and the viability, T/C (second compound 0.3 µM, first compound 0.00949 µM) was 88.5%. The viability, T/C (second compound 0.3 µM, first compound 0.03 µM) was 87.1%, the viability, T/C (second compound 0.3 µM, first compound 0.0949 µM) was 71.2% and the viability, T/C (second compound 0.3 µM, first compound 0.3 µM) was 59.2%. The viability, T/C (second compound 0.3 µM, first compound 0.949 µM) was 62%, the viability, T/C (second compound 0.3 µM, first compound 3 µM) was 37.8% and the viability, T/C (second compound 0.949 µM, first compound 0.00949 µM) was 97.7%. For the same compound, the viability, T/C (second compound 0.949 µM, first compound 0.03 µM) was 87.8%, the viability, T/C (second compound 0.949 µM, first compound 0.0949 µM) was 85% and the viability, T/C (second compound 0.949 µM, first compound 0.3 µM) was 67.2%. For the same compound, the viability, T/C (second compound 0.949 µM, first compound 0.949 µM) was 68.1%, the viability, T/C (second compound 0.949 µM, first compound 3 µM) was 69.5% and the viability, T/C (second compound 3 µM, first compound 0.00949 µM) was 139%. For the same compound, the viability, T/C (second compound 3 µM, first compound 0.03 µM) was 122%, the viability, T/C (second compound 3 µM, first compound 0.0949 µM) was 101% and the viability, T/C (second compound 3 µM, first compound 0.3 µM) was 96.6%. It also gave a viability, T/C (second compound 3 µM, first compound 0.949 µM) of 90.6% and a viability, T/C (second compound 3 µM, first compound 3 µM) of 99%.

In the case of `O=C(c1cc(Cc2n[nH]c(=O)c3ccccc23)ccc1F)N1CCN(C(=O)C2CC2)CC1` + CCN1C(C(=O)NC23CCC(C(=O)O)(CC2)CC3)C(c2cccc(Cl)c2F)C2(C(=O)Nc3cc(Cl)ccc32)C12CCCCC2, the IC50 (second compound 0.03 µM) is reported as over 10 µM, the IC50 (second compound 0.0949 µM) is reported as over 10 µM and the IC50 (second compound 0.3 µM) is reported as over 10 µM. The IC50 (second compound 0.949 µM) was over 10 µM, the IC50 (second compound 3 µM) was over 10 µM and the viability, T/C [1] was 101%. For the same compound, the viability, T/C [2] was 113%, the viability, T/C [3] was 68.7% and the viability, T/C [4] was 91.9%. It also gave a viability, T/C [5] of 86.1%, a viability, T/C [6] of 63% and a viability, T/C [7] of 114%. For the same compound, the viability, T/C [8] was 102%, the viability, T/C [9] was 99% and the viability, T/C [10] was 73.2%. The viability, T/C [11] was 74.2%, the viability, T/C [12] was 74.5% and the viability, T/C [13] was 96.9%. The viability, T/C [14] was 131%, the viability, T/C [15] was 104% and the viability, T/C [16] was 87.2%. For the same compound, the viability, T/C [17] was 75.2%, the viability, T/C [18] was 66.8% and the viability, T/C [19] was 123%. For the same compound, the viability, T/C [20] was 124%, the viability, T/C [21] was 113% and the viability, T/C [22] was 113%. It also gave a viability, T/C [23] of 93.3%, a viability, T/C [24] of 88.8% and a viability, T/C [25] of 109%. It also gave a viability, T/C [26] of 137%, a viability, T/C [27] of 135% and a viability, T/C [28] of 126%. It also gave a viability, T/C [29] of 106% and a viability, T/C [30] of 98%.

For `C=CC(=O)N1CCN(c2nc(=O)n(-c3c(C)ccnc3C(C)C)c3nc(-c4c(O)cccc4F)c(F)cc23)C(C)C1` (stereo not given) + CCN1C(C(=O)NC23CCC(C(=O)O)(CC2)CC3)C(c2cccc(Cl)c2F)C2(C(=O)Nc3cc(Cl)ccc32)C12CCCCC2, the IC50 (second compound 0.03 µM) was over 10 µM, the IC50 (second compound 0.0949 µM) was over 10 µM and the IC50 (second compound 0.3 µM) was over 10 µM. For the same compound, the IC50 (second compound 0.949 µM) was over 10 µM, the IC50 (second compound 3 µM) was over 10 µM and the viability, T/C [1] was 75.2%. For the same compound, the viability, T/C [2] was 67.4%, the viability, T/C [3] was 92.5% and the viability, T/C [4] was 113%. For the same compound, the viability, T/C [5] was 127%, the viability, T/C [6] was 98.3% and the viability, T/C [7] was 112%. For the same compound, the viability, T/C [8] was 107%, the viability, T/C [9] was 113% and the viability, T/C [10] was 116%. For the same compound, the viability, T/C [11] was 114%, the viability, T/C [12] was 105% and the viability, T/C [13] was 76.2%. It also gave a viability, T/C [14] of 110%, a viability, T/C [15] of 111% and a viability, T/C [16] of 122%. For the same compound, the viability, T/C [17] was 130%, the viability, T/C [18] was 91.2% and the viability, T/C [19] was 107%. It also gave a viability, T/C [20] of 110%, a viability, T/C [21] of 140% and a viability, T/C [22] of 130%. It also gave a viability, T/C [23] of 130%, a viability, T/C [24] of 90.2% and a viability, T/C [25] of 128%. The viability, T/C [26] was 135%, the viability, T/C [27] was 123% and the viability, T/C [28] was 141%. For the same compound, the viability, T/C [29] was 120% and the viability, T/C [30] was 112%.

`C=C(F)C(=O)N1CCN(c2nc(OCC3CCCN3C)nc3c2CCN(c2cccc4cccc(Cl)c24)C3)CC1CC#N` (stereo not given) + CCN1C(C(=O)NC23CCC(C(=O)O)(CC2)CC3)C(c2cccc(Cl)c2F)C2(C(=O)Nc3cc(Cl)ccc32)C12CCCCC2 showed an IC50 (second compound 0.03 µM) of 5.38 µM, an IC50 (second compound 0.0949 µM) of 5.58 µM and an IC50 (second compound 0.3 µM) of 6.04 µM. The IC50 (second compound 0.949 µM) was 6.7 µM, the IC50 (second compound 3 µM) was 6.81 µM and the viability, T/C [1] was 95.2%. For the same compound, the viability, T/C [2] was 95.1%, the viability, T/C [3] was 77.5% and the viability, T/C [4] was 85.2%. It also gave a viability, T/C [5] of 110%, a viability, T/C [6] of 0.26% and a viability, T/C [7] of 98%. The viability, T/C [8] was 103%, the viability, T/C [9] was 71.4% and the viability, T/C [10] was 91.5%. It also gave a viability, T/C [11] of 128%, a viability, T/C [12] of 0.27% and a viability, T/C [13] of 110%. The viability, T/C [14] was 98.2%, the viability, T/C [15] was 108% and the viability, T/C [16] was 113%. It also gave a viability, T/C [17] of 141%, a viability, T/C [18] of 0.27% and a viability, T/C [19] of 130%. For the same compound, the viability, T/C [20] was 95.8%, the viability, T/C [21] was 109% and the viability, T/C [22] was 112%. It also gave a viability, T/C [23] of 152%, a viability, T/C [24] of 12.7% and a viability, T/C [25] of 120%. For the same compound, the viability, T/C [26] was 154%, the viability, T/C [27] was 146% and the viability, T/C [28] was 137%. The viability, T/C [29] was 188% and the viability, T/C [30] was 0.35%.
